Experimental data as given in patent US7294637B2 (Sepracor, Inc., priority 2000, dated 2007).
pEC50, pIC50: −log10 of the molar value. Read-outs that look alike come from different tables or passages of the source.

How the values were obtained:
[1] = biological target: T1, serotonin transporter (Homo sapiens, UniProt P31645); assay: Functional activity, serotonin uptake inhibition in human HEK-293 cell lines; format: cell-based; design: expressed in transfected cells; host or cells: HEK-293; conditions: for EC50: 5-HT Uptake, Functional Assays (antagonism, EC50, nM)
[2] = biological target: dopamine transporter (Homo sapiens, UniProt Q01959); assay: DA uptake: displacement of dopamine ligands in vitro (methods of Gu et al.); conditions: DA Uptake, Uptake Profile (IC50, nM), displacement of dopamine ligands in vitro
[3] = biological target: T1, serotonin transporter; assay: 5-HT uptake: displacement of serotonin ligands in vitro (methods of Gu et al.); format: binding; conditions: for pIC50: displacement of serotonin ligands in vitro, read-out: 5-HT Uptake, Uptake Profile (IC50)
[4] = test system: mouse; assay: Acute toxicity assessment, maximum tolerated dose i.v., mouse; format: in vivo; conditions: mice
Method: (§1) An in vivo evaluation was carried out to determine the maximum tolerated dose of numerous test compounds in two animal species (mouse and rat). The compounds were administered i.v. and the animals were then observed for 72 h. Compounds 114, 115, 113, 110, 124, 125, 129, and 130 were solubilized in 5% dextrose (w/v)/polyethylene glycol 400 (4:1 v/v). Compounds 126, 127, 131, and 132 were solubilized in 10% hydroxypropyl-β-cyclodextrin (w/v).

[5] = biological target: T2, norepinephrine transporter (Homo sapiens, UniProt P23975); assay: Functional activity, norephinephrine uptake inhibition in MDCK cell lines; format: cell-based
[6] = biological target: T2, norepinephrine transporter; assay: NE uptake: displacement of norephinephrine ligands in vitro (methods of Galli et al.); format: binding; conditions: NE Uptake, Uptake Profile (IC50, nM)
[7] = test system: rat; assay: Acute toxicity assessment, maximum tolerated dose i.v., rat; format: in vivo; conditions: rats
Method: as §1

[8] = test system: Sprague-Dawley rats; assay: Spontaneous locomotor activity in rats (Example 123); format: in vivo, rat; conditions: 20 mg/kg i.p., 60 minutes after administration
Method: Male Sprague-Dawley rats, (Iffa Credo, Saint-Germain/L'Arbresle, France), weighing 200-250 g at the beginning of the study, were used.
During acclimatization period, rats were housed, 2 or 3 per cage, in Makrolon type III cages, in the animal room (temperature: 20±2° C., humidity: minimum 45%, air changes:>12 per hour, light/dark cycle of 12 h/12 h [on at 7:00 A.M.]). Animals were allowed a minimum of 5 days period before experiment for acclimatization.
Rats received food (TrouwNutrition, Vigny, France) and water (tap water in water bottle) ad libitum. Rats were placed on a sawdust bedding in their cages (Goldchips, Trouw Nutrition, Vigny, France). On the day before experiments, food was withdrawn to have animals fasted overnight.
On the day of experiment, test item(s) were solubilized in 5% dextrose (w/v)/polyethylene glycol (PEG) 400 (4:1 v/v).
All test compounds were administered at 20 mg/kg as a single i.p. dose.
Twenty, 60 and 120 minutes after administration, rats were placed in a plastic box 30×30 cm in a room with low light intensity (maximum 50 lux). Locomotor activity was determined during 20 min periods using a video image analyzer (Videotrack, View Point, France). Number of occurences, distance and duration of fast and slow movements, number of occurences and duration of periods of inactivity and number of rears were measured.

[9] = biological target: DAT (Homo sapiens, UniProt Q01959); assay: cell-based; design: expressed in transfected cells; conditions: hDAT cell line; read-out: DA Uptake, Functional Assays (antagonism, EC50)
[10] = test system: Sprague-Dawley rats; assay: Spontaneous locomotor activity in rats (Example 141); format: in vivo, rat
Method: The effect of 124 and 126 on spontaneous locomotor activity in rats was determined according to the procedures outlined by Silverman et al. (Motor Activity. In “Animal behavior in the laboratory”, Chapman and Hall eds, London, p. 79-92, 1978) and Boissier et al. (Arch. Int. Pharmacodyn. 1965, 158, 212. )
Test items and test item vehicles were administered to male Sprague-Dawley rats (n=10) as a single i.p. dose (vehicle A=10% hydroxypropyl-β-cyclodextrin in water; vehicle B=4:1 5% aqueous dextrose:PEG 400). […] Locomotor activity was determined during 20 minute periods using video image analyzers. Images recorded with video cameras were digitalized and displacements of the center of gravity of the digital image spot were tracked and analyzed. When the speed of displacement of the center of gravity of the spot was below 4.26 cm/sec, the movement was considered as inactivity. When this speed was between 4.26 and 6.75 cm/sec, the movement was considered as a small movement. When this speed was above 6.75 cm/sec, the movement was considered as a large movement. The number of occurrences, distance and duration of fast and slow movements, number of occurrences and duration of periods of inactivity and number of rears were measured.

[11] = test system: rats; format: in vivo, rat; conditions: for % variation of the total duration of immobility: 1 h before test
Method: The animals were preconditioned in a pretest session, where the rats were individually forced to swim inside a vertical plexiglass cylinder containing water maintained at 19-20° C. […] Twenty four hours later, the compounds were administered intraperitoneal to the animals. One hour after administration of the test compound, animals were put back into the cylinder containing water. The total duration of immobility was measured during the last 4 minutes of a 6 minute test.
(§2) The results are expressed as the percentage of variation of the total duration of immobility calculated from the mean value of the vehicle-treated group (% variation=[(immobility duration of vehicle-immobility duration of test compound)/(immobility duration of vehicle)]×100%).

[12] = test system: Sprague-Dawley rats; assay: Spontaneous locomotor activity in rats, 1-24 hours (Example 223); format: in vivo, rat; conditions: 10 mg/kg i.p.
Method: The effect of 124 and 126 on spontaneous locomotor activity in rats was determined according to the procedures outlined by Silverman et al. (Motor Activity. In “Animal behavior in the laboratory”, Chapman and Hall eds, London, p. 79-92, 1978) and Boissier et al. (Arch. Int. Pharmacodyn. 1965, 158, 212. ) Test items and test item vehicles were administered to male Sprague-Dawley rats (n=10) as a single i.p. dose. One, three, five, eight and twenty four hours following administration, rats were placed in a plastic box 30×30 cm in a room with low light intensity (maximum 50 lux). Locomotor activity was determined during 20 minute periods using video image analyzers. Images recorded with video cameras were digitalized and displacements of the center of gravity of the digital image spot were tracked and analyzed. When the speed of displacement of the center of gravity of the spot was below 4.26 cm/sec, the movement was considered as inactivity. When this speed was between 4.26 and 6.75 cm/sec, the movement was considered as a small movement. When this speed was above 6.75 cm/sec, the movement was considered as a large movement. The number of occurrences, distance and duration of fast and slow movements, number of occurrences and duration of periods of inactivity and number of rears were measured.

[13] = test system: rats; assay: Behavioral despair assay in rats, 3 i.p. injections (Example 143); format: in vivo, rat; conditions: for % variation of the total duration of immobility: 3 i.p. injections 24 h, 5 h and 1 h before test
From the text: The objective of this study was to assess the antidepressant effects of test compounds 124, 125, 126, and 127 in the behavioral despair assay in rats according to the methods described by Porsolt R. D., Anton G., Blavet N., Jalfre M., Behavioural despair in rats: a new model sensitive to antidepressant treatment, Eur. J. Pharmacol., 1978, 47, 379-391. The animals were preconditioned in a pretest session, where the rats were individually forced to swim inside a vertical plexiglass cylinder containing water maintained at 19-20° C. After 15 minutes in the water, they were allowed to dry for 15 minutes in a heated enclosure. Twenty four hours later, they were replaced in the cylinder and the total duration of immobility was measured during a 5 minute test (test session). The test compounds and vehicle were administered as a series of 3 intraperitoneal injections 24 h, 5 h and 1 h before the 5 minute test on the second day.
as §2

[14] = test system: rats and monkeys; conditions: rats; cited from earlier work

T2 sequence (P23975 whole entry): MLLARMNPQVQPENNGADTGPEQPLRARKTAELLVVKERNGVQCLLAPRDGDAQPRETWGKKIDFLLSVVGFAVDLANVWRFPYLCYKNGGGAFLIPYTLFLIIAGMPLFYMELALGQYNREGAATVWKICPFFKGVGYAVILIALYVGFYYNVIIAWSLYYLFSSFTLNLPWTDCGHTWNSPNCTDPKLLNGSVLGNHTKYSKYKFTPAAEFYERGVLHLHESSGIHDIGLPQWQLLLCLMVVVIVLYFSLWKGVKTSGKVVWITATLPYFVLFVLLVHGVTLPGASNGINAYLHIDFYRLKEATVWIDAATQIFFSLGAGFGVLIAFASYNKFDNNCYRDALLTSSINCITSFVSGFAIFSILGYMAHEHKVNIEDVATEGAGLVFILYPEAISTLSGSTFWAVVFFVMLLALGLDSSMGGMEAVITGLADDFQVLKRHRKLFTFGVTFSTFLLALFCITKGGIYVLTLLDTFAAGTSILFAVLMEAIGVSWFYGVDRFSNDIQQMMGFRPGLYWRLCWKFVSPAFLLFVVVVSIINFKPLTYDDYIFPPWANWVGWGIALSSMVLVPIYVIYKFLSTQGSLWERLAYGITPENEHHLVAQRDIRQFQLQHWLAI
T1 sequence (P31645 whole entry): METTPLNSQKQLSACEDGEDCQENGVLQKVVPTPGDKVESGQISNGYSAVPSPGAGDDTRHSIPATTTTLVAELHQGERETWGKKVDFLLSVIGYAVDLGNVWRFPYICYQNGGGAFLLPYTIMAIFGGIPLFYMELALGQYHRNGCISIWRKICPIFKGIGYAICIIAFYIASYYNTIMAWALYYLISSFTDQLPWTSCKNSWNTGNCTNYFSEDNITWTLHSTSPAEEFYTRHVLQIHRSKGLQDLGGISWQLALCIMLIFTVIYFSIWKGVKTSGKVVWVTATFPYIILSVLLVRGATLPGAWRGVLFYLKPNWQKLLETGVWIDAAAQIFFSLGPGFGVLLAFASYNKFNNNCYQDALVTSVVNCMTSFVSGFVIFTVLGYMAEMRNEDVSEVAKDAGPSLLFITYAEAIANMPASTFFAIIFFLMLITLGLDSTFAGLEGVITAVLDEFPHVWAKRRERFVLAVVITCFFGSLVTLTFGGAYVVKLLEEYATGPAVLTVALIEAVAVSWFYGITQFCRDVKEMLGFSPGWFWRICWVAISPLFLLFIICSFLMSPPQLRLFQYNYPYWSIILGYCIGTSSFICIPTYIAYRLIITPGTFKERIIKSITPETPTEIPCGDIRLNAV
Sequence of dopamine transporter (Q01959 whole entry): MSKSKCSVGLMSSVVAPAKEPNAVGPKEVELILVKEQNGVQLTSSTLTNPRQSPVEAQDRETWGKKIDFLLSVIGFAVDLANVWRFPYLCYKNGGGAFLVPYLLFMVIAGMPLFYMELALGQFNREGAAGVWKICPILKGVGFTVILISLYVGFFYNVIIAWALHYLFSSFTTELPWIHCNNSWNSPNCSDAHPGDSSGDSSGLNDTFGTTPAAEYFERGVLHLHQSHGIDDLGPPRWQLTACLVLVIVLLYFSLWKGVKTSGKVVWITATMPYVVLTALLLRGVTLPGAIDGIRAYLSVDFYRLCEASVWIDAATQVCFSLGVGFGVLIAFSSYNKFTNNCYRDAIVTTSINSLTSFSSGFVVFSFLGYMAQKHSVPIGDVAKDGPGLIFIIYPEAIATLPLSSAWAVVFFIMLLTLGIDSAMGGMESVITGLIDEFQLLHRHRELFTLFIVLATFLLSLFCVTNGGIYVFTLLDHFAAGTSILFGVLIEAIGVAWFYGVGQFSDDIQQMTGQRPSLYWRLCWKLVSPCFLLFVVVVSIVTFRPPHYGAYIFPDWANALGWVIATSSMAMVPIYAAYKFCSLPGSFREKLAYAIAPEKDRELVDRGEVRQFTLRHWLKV
Sequence of DAT (Q01959 whole entry): as above

Clc1ccc(C2(CN3CCC[C@H](COc4ccc5c(c4)OCO5)C3)CCC2)cc1 [compound 113, (S)-3-(Benzo[1,3]dioxol-5-yloxymethyl)-1-[1-(4-chloro-phenyl)-cyclobutylmethyl]-piperidine]
EC50 [1]: > 1000 nM | IC50 [2]: < 100 nM | pIC50 [3]: > 6.00 | tolerability and mortality after 72 h ([4]; 30 mg/kg i.v.): well tolerated | pEC50 [5]: > 6.00 | IC50 [6]: < 1000 nM | tolerability and mortality after 72 h ([7]; 30 mg/kg i.v.): well tolerated | locomotor activity compared to control animals [8]: significant increase | pEC50 [9]: > 8.00

Clc1ccc(C2(CN3CCC[C@@H](COc4ccc5c(c4)OCO5)C3)CCC2)cc1 [compound 110, (R)-3-(Benzo[1,3]dioxol-5-yloxymethyl)-1-[1-(4-chloro-phenyl)-cyclobutylmethyl]-piperidine]
EC50 [1]: > 1000 nM | IC50 [2]: < 100 nM | pIC50 [3]: > 6.00 | tolerability and mortality after 72 h ([4]; 30 mg/kg i.v.): well tolerated | pEC50 [5]: > 6.00 | IC50 [6]: < 1000 nM | tolerability and mortality after 72 h ([7]; 30 mg/kg i.v.): well tolerated | locomotor activity compared to control animals [8]: significant increase | pEC50 [9]: > 8.00

O[C@H](CN1CCC[C@@H](COc2ccc(C(F)(F)F)cc2)C1)C1(c2ccc(Cl)cc2)CCC1 [compound 126, 1R-1-[1-(4-Chloro-phenyl)-cyclobutyl]-2-[(3R)-3-(4-trifluoromethyl-phenoxymethyl)-piperidin-1-yl]-ethanol]
pEC50 ([1]; human HEK-293 cell lines, read-out: 5-HT Uptake, Functional Assays (antagonism, EC50)): > 6.00 | IC50 [2]: < 10 nM | pIC50 [3]: > 6.00 | tolerability and mortality after 72 h ([4]; 10 mg/kg i.v.): well tolerated | Small Movement Occurrences ([10]; 5 mg/kg i.p.): 651.4 ± 141.2 | Large Movement Occurrences ([10]; 5 mg/kg i.p., 20 min): 287.0 ± 34.4 ^ | Small Movement Occurrences ([10]; 5 mg/kg i.p., 20 min): 711.6 ± 65.7 ^ | Large Movement Occurrences ([10]; 5 mg/kg i.p., 60 min): 204.4 ± 36.3 ^ | Small Movement Occurrences ([10]; 5 mg/kg i.p., 60 min): 563.5 ± 85.0 ^ | Large Movement Occurrences ([10]; 5 mg/kg i.p., 120 min): 293.8 ± 68.9 ^ | Small Movement Occurrences ([10]; 5 mg/kg i.p., 120 min): 717.4 ± 138.6 | Large Movement Occurrences ([10]; 5 mg/kg i.p., 180 min): 270.5 ± 73.8 ^ | Large Movement Occurrences ([10]; 10 mg/kg i.p., 20 min): 364.7 ± 52.7 ^ | Small Movement Occurrences ([10]; 10 mg/kg i.p., 20 min): 904.3 ± 110.8 | Large Movement Occurrences ([10]; 10 mg/kg i.p., 60 min): 644.5 ± 127.3 | Small Movement Occurrences ([10]; 10 mg/kg i.p., 60 min): 1218.7 ± 178.9 ^ | Large Movement Occurrences ([10]; 10 mg/kg i.p., 120 min): 752.7 ± 129.4 | Small Movement Occurrences ([10]; 10 mg/kg i.p., 120 min): 1358.1 ± 137.1 ^ | locomotor activity compared to control animals ([10]; dosed at 5 and 10 mg/kg i.p.): significant increase | pEC50 [5]: > 6.00 | IC50 [6]: < 100 nM | effectiveness (statistically significant variation >30%) ([11]; 2.5 mg/kg): effective | % variation of the total duration of immobility ([11]; 2.5 mg/kg i.p.): 45% | % variation of the total duration of immobility ([11]; 10 mg/kg i.p.): 99% | Large Movement Occurrences ([12]; 1 hour): 774 ± 110 ^ | Small Movement Occurrences ([12]; 1 hour): 1357 ± 125^ | Large Movement Occurrences ([12]; 3 hours): 956 ± 93^ | Small Movement Occurrences ([12]; 3 hours): 1610 ± 73 ^ | Large Movement Occurrences ([12]; 5 hours): 866 ± 117 ^ | Small Movement Occurrences ([12]; 5 hours): 1575 ± 90 ^ | Large Movement Occurrences ([12]; 8 hours): 746 ± 95^ | Small Movement Occurrences ([12]; 8 hours): 1489 ± 111^ | Large Movement Occurrences ([12]; 24 hours): 1012 ± 81 ^ | Small Movement Occurrences ([12]; 24 hours): 1544 ± 75 ^ | locomotor activity compared to control animals ([12]; at all times tested (1, 3, 5, 8, 24 hours)): significant increase | % variation of the total duration of immobility ([13]; 0.25 mg/kg): 9% | % variation of the total duration of immobility ([13]; 0.75 mg/kg): 47% | effectiveness (statistically significant variation >30%) ([13]; 1.0 mg/kg): effective | % variation of the total duration of immobility ([13]; 1.0 mg/kg): 58% | effectiveness (statistically significant variation >30%) ([13]; 2.5 mg/kg): effective | % variation of the total duration of immobility ([13]; 2.5 mg/kg): 76% | tolerability and mortality after 72 h ([7]; 10 mg/kg i.v.): well tolerated | pEC50 [9]: > 8.00

FC(F)(F)c1ccc(OC[C@H]2CCCN(CC3(c4ccc(Cl)cc4)CCC3)C2)cc1 [compound 115, (S)-1-[1-(4-chloro-phenyl)-cyclobutylmethyl]-3-(4-trifluoromethyl-phenoxymethyl)-piperidine]
EC50 [1]: > 1000 nM | IC50 [2]: < 100 nM | IC50 ([3]; 5-HT Uptake, Uptake Profile (IC50, nM)): > 1000 nM | tolerability and mortality after 72 h ([4]; 30 mg/kg i.v.): well tolerated | pEC50 [5]: > 6.00 | IC50 [6]: < 1000 nM | tolerability and mortality after 72 h ([7]; 30 mg/kg i.v.): well tolerated | locomotor activity compared to control animals [8]: significant increase | pEC50 [9]: > 8.00

CNCCC(Oc1ccc(C(F)(F)F)cc1)c1ccccc1 (centres unmarked) [fluoxetine]
effect on self-administration of cocaine [14]: decreased self-administration of cocaine
